The values below are quoted from earlier work in paper PMC4520450, “Procyanidins Negatively Affect the Activity of the Phosphatases of Regenerating Liver” (PLoS ONE, 2015).

As a reminder, the IC50 is the concentration needed to halve the response being measured.

Holding throughout (details): cited from earlier work
One data set has as its target protein phosphatase-1. Set-up: method as in PMID 22260360.
The next data set has as its target T1, PRL-3 (Homo sapiens, UniProt O75365).
T1 construct: His-TEV (cleaved yes); made in house
Further details: method as in PMID 20873564.

The next data set deals with Caco-2 cell model. Further details: method as in PMID 23885956.

SMILES strings stand for the structures.

T1 sequence (O75365 whole entry): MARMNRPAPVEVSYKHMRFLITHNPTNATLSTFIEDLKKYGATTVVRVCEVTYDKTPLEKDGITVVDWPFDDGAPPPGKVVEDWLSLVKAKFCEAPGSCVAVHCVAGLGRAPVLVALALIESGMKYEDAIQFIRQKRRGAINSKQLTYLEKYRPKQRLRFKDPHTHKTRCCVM

In the case of `O=C(OC[C@H]1O[C@@H](OC(=O)c2cc(O)c(O)c(O)c2)[C@H](OC(=O)c2cc(O)c(O)c(O)c2)[C@@H](OC(=O)c2cc(O)c(O)c(O)c2)[C@@H]1OC(=O)c1cc(O)c(O)c(O)c1)c1cc(O)c(O)c(O)c1` [PGG, 1,2,3,4,6-penta-O-galloyl-beta-D-glucose, reference compound], the IC50 on protein phosphatase-1 is 400 nM. `O=c1c(O)c(-c2ccc(O)c(O)c2)oc2c(O[C@@H]3O[C@H](CO)[C@@H](O)[C@H](O)[C@H]3O)c(O)cc(O)c12` [gossypin]: at PRL-3, the “PRL-3 phosphatase inhibition in vitro” value is “moderate phosphatase inhibition”. As to `O=c1c(O)c(-c2cc(O)c(O)c(O)c2)oc2cc(O)cc(O)c12` [myricetin], the “PRL-3 phosphatase inhibition in vitro” value at PRL-3 is recorded as “moderate phosphatase inhibition”. As for `Oc1cc(O)c2c(c1)O[C@H](c1ccc(O)c(O)c1)[C@H](O)[C@H]2c1c(O)cc(O)c2c1O[C@H](c1ccc(O)c(O)c1)[C@H](O)[C@H]2c1c(O)cc(O)c2c1O[C@H](c1ccc(O)c(O)c1)[C@H](O)C2` [procyanidin C1, reference compound], in the data set on Caco-2 cell model, the permeation result is given as “no permeation was detected”.
